Test results reported in paper PMC7034945 (RSC Advances, 2019).
Where two headings read alike, the source gives them in different places. Values belong to the compound of their own block, whether it stands above or below them.

How the values were obtained:
in vitro = conditions: human
HIV-1 NL4-3 virus = experiment: Anti-HIV-1 activity, multicycle assay with HIV-1 NL4-3 in TZM-bl cells; type: cell-based; conditions: for anti-HIV-1 activity (in words) / SI (selectivity index, ratio of CC50/EC50): TZM-bl cells; for anti-HIV-1 activity (in words): at the test concentration
TZM-bl cells = conditions: uninfected TZM-bl cells, NA = no cytotoxicity at the test concentration
HIV-1 CA monomer = HIV-1 CA monomer (Human immunodeficiency virus type 1 group M subtype B, UniProt P12493); experiment: biochemical; type: binding, HIV-1 NL4-3
[1] = Caco-2, pH 7.4, Mean Papp A to B, Caco-2, 2 μM, 2 hours, pH 7.40
[2] = Caco-2, pH 7.4, Rank Papp, Caco-2, A to B, permeability class
[3] = Caco-2, pH 7.4, apparent permeability (Papp), Caco-2 cells
[4] = Table 1, HIV-1 NL4-3, TZM-bl cells, NA = no anti-HIV-1 activity at the test concentration
[5] = Table 2, HIV-1 NL4-3, TZM-bl cells, NA = no anti-HIV-1 activity at the test concentration
[6] = Human immunodeficiency virus 1, NL43, TZM-bl

Compound: Methyl (S)-4-(4-((3-(3,5-difluorophenyl)-1-((4-methoxyphenyl)(methyl)amino)-1-oxopropan-2-yl)carbamoyl)-1H-1,2,3-triazol-1-yl)benzoate [I-8p]
EC50 (HIV-1 NL4-3 virus; [4]): 14.2 ± 3.46 µM | CC50 (TZM-bl cells; Table 1): > 18.2 µM

Compound: COc1ccc(N(C)C(=O)[C@H](Cc2cc(F)cc(F)c2)NC(=O)c2cccc(-c3cn(Cc4ccc([N+](=O)[O-])cc4)nn3)c2)cc1 [II-10c, (S)-N-(3-(3,5-Difluorophenyl)-1-((4-methoxyphenyl)(methyl)amino)-1-oxopropan-2-yl)-3-(1-(4-nitrobenzyl)-1H-1,2,3-triazol-4-yl)benzamide]
Papp A→B (in vitro; [1]): < 0.01 ×10⁻⁶ cm/s | Papp A→B (in vitro; [2]): < 0.5 ×10⁻⁶ cm/s | Papp A→B (in vitro; [3]): < 0.01 ×10⁻⁶ cm/s | Kd (HIV-1 CA monomer): 2.2 ± 0.23 µM | EC50 (HIV-1 NL4-3 virus; [6]): 2.13 ± 0.75 µM | anti-HIV-1 activity (in words) (HIV-1 NL4-3 virus): exhibited anti-HIV-1 activity at the test concentration | SI (selectivity index, ratio of CC50/EC50) (HIV-1 NL4-3 virus; Table 2): >16.66

Compound: (S)-N-(3-(3,5-Difluorophenyl)-1-((4-methoxyphenyl)(methyl)amino)-1-oxopropan-2-yl)-3-(1-(quinolin-2-yl)-1H-1,2,3-triazol-4-yl)benzamide [II-10i]
anti-HIV-1 activity (in words) (HIV-1 NL4-3 virus): exhibited anti-HIV-1 activity at the test concentration | EC50 (HIV-1 NL4-3 virus; [5]): 21.5 ± 4.53 µM | CC50 (TZM-bl cells; Table 2): > 32.3 µM

Compound: N-((S)-3-(3,5-Difluorophenyl)-1-((4-methoxyphenyl)(methyl)amino)-1-oxopropan-2-yl)-1-(2-(hydroxymethyl)-5-(5-methyl-2,6-dioxo-1,2,3,6-tetrahydropyridin-3-yl)tetrahydrofuran-3-yl)-1H-1,2,3-triazole-4-carboxamide [I-8u]
anti-HIV-1 activity (in words) (HIV-1 NL4-3 virus): lost its anti-HIV-1 activity | EC50 (HIV-1 NL4-3 virus; [4]): > 15.6 µM | CC50 (TZM-bl cells; Table 1): > 15.6 µM

Compound: COc1ccc(N(C)C(=O)[C@H](Cc2cc(F)cc(F)c2)NC(=O)c2cccc(-c3cn(Cc4cccc([N+](=O)[O-])c4)nn3)c2)cc1 [II-10b, (S)-N-(3-(3,5-Difluorophenyl)-1-((4-methoxyphenyl)(methyl)amino)-1-oxopropan-2-yl)-3-(1-(3-nitrobenzyl)-1H-1,2,3-triazol-4-yl)benzamide]
EC50 (HIV-1 NL4-3 virus; [6]): > 35.5 µM

Compound: COc1ccc(N(C)C(=O)[C@H](Cc2cc(F)cc(F)c2)NC(=O)c2cn(Cc3cccc(C)c3)nn2)cc1 [I-8b, (S)-N-(3-(3,5-Difluorophenyl)-1-((4-methoxyphenyl)(methyl)amino)-1-oxopropan-2-yl)-1-(3-methylbenzyl)-1H-1,2,3-triazole-4-carboxamide]
EC50 (HIV-1 NL4-3 virus; [6]): 9.43 ± 2.31 µM | SI (selectivity index, ratio of CC50/EC50) (HIV-1 NL4-3 virus; Table 1): >2.04

Compound: COc1ccc(N(C)C(=O)[C@H](Cc2cc(F)cc(F)c2)NC(=O)c2cccc(-c3cn(Cc4ccccc4[N+](=O)[O-])nn3)c2)cc1 [II-10a, (S)-N-(3-(3,5-Difluorophenyl)-1-((4-methoxyphenyl)(methyl)amino)-1-oxopropan-2-yl)-3-(1-(2-nitrobenzyl)-1H-1,2,3-triazol-4-yl)benzamide]
EC50 (HIV-1 NL4-3 virus; [6]): > 35.5 µM

Compound: COC(=O)Cn1cc(-c2cccc(C(=O)N[C@@H](Cc3cc(F)cc(F)c3)C(=O)N(C)c3ccc(OC)cc3)c2)nn1 [II-10l, Methyl (S)-2-(4-(3-((3-(3,5-difluorophenyl)-1-((4-methoxyphenyl)(methyl)amino)-1-oxopropan-2-yl)carbamoyl)phenyl)-1H-1,2,3-triazol-1-yl)acetate]
anti-HIV-1 activity (in words) (HIV-1 NL4-3 virus): lost anti-HIV-1 activity completely

Compound: COc1ccc(N(C)C(=O)[C@H](Cc2cc(F)cc(F)c2)NC(=O)c2cccc(-c3cn(Cc4cccc5ccccc45)nn3)c2)cc1 [II-10k, (S)-N-(3-(3,5-Difluorophenyl)-1-((4-methoxyphenyl)(methyl)amino)-1-oxopropan-2-yl)-3-(1-(naphthalen-1-ylmethyl)-1H-1,2,3-triazol-4-yl)benzamide]
EC50 (HIV-1 NL4-3 virus; [6]): > 31.7 µM

Compound: COc1ccc(N(C)C(=O)[C@H](Cc2cc(F)cc(F)c2)NC(=O)c2cccc(-c3cn(CC(=O)Nc4ccccc4)nn3)c2)cc1 [II-10e, (S)-N-(3-(3,5-Difluorophenyl)-1-((4-methoxyphenyl)(methyl)amino)-1-oxopropan-2-yl)-3-(1-(2-oxo-2-(phenylamino)ethyl)-1H-1,2,3-triazol-4-yl)benzamide]
EC50 (HIV-1 NL4-3 virus; [6]): 8.16 ± 2.56 µM | anti-HIV-1 activity (in words) (HIV-1 NL4-3 virus): exhibited anti-HIV-1 activity at the test concentration | SI (selectivity index, ratio of CC50/EC50) (HIV-1 NL4-3 virus; Table 2): >3.92

Compound: COc1ccc(N(C)C(=O)[C@H](Cc2cc(F)cc(F)c2)NC(=O)c2cn(Cc3cccc4ccccc34)nn2)cc1 [I-8m, (S)-N-(3-(3,5-Difluorophenyl)-1-((4-methoxyphenyl)(methyl)amino)-1-oxopropan-2-yl)-1-(naphthalen-1-ylmethyl)-1H-1,2,3-triazole-4-carboxamide]
EC50 (HIV-1 NL4-3 virus; [6]): 14.8 ± 3.24 µM | SI (selectivity index, ratio of CC50/EC50) (HIV-1 NL4-3 virus; Table 1): >1.22

Compound: COc1ccc(N(C)C(=O)[C@H](Cc2cc(F)cc(F)c2)NC(=O)c2cn(Cc3cccc(C#N)c3)nn2)cc1 [I-8h, (S)-1-(3-Cyanobenzyl)-N-(3-(3,5-difluorophenyl)-1-((4-methoxyphenyl)(methyl)amino)-1-oxopropan-2-yl)-1H-1,2,3-triazole-4-carboxamide]
EC50 (HIV-1 NL4-3 virus; [6]): 3.58 ± 0.64 µM | SI (selectivity index, ratio of CC50/EC50) (HIV-1 NL4-3 virus; Table 1): >5.27

Compound: COc1ccc(N(C)C(=O)[C@H](Cc2cc(F)cc(F)c2)NC(=O)c2cn(Cc3ccc(C)cc3)nn2)cc1 [I-8c, (S)-N-(3-(3,5-Difluorophenyl)-1-((4-methoxyphenyl)(methyl)amino)-1-oxopropan-2-yl)-1-(4-methylbenzyl)-1H-1,2,3-triazole-4-carboxamide]
EC50 (HIV-1 NL4-3 virus; [6]): 10.6 ± 3.46 µM | SI (selectivity index, ratio of CC50/EC50) (HIV-1 NL4-3 virus; Table 1): >1.82

Compound: COc1ccc(N(C)C(=O)[C@H](Cc2cc(F)cc(F)c2)NC(=O)c2cn(Cc3cccc(Cl)c3)nn2)cc1 [I-8e, (S)-1-(3-Chlorobenzyl)-N-(3-(3,5-difluorophenyl)-1-((4-methoxyphenyl)(methyl)amino)-1-oxopropan-2-yl)-1H-1,2,3-triazole-4-carboxamide]
EC50 (HIV-1 NL4-3 virus; [6]): 8.33 ± 1.41 µM | SI (selectivity index, ratio of CC50/EC50) (HIV-1 NL4-3 virus; Table 1): >2.22

Compound: COc1ccc(N(C)C(=O)[C@H](Cc2cc(F)cc(F)c2)NC(=O)c2cn(Cc3ccc(C(N)=O)cc3)nn2)cc1 [I-8s, (S)-1-(4-Carbamoylbenzyl)-N-(3-(3,5-difluorophenyl)-1-((4-methoxyphenyl)(methyl)amino)-1-oxopropan-2-yl)-1H-1,2,3-triazole-4-carboxamide]
EC50 (HIV-1 NL4-3 virus; [6]): 11.1 ± 2 µM | SI (selectivity index, ratio of CC50/EC50) (HIV-1 NL4-3 virus; Table 1): >1.64

Compound: Methyl (S)-2-(4-(3-((1-((4-methoxyphenyl)(methyl)amino)-1-oxo-3-phenylpropan-2-yl)carbamoyl)phenyl)-1H-1,2,3-triazol-1-yl)acetate [III-15m]
anti-HIV-1 activity (in words) (HIV-1 NL4-3 virus): lost anti-HIV-1 activity completely

Compound: COc1ccc(N(C)C(=O)[C@H](Cc2cc(F)cc(F)c2)NC(=O)c2cn(CS(=O)(=O)c3ccccc3)nn2)cc1 [I-8t, (S)-N-(3-(3,5-Difluorophenyl)-1-((4-methoxyphenyl)(methyl)amino)-1-oxopropan-2-yl)-1-((phenylsulfonyl)methyl)-1H-1,2,3-triazole-4-carboxamide]
EC50 (HIV-1 NL4-3 virus; [6]): 4.21 ± 0.9 µM | SI (selectivity index, ratio of CC50/EC50) (HIV-1 NL4-3 virus; Table 1): >4.17

The next lines start with results.

Papp A→B (in vitro; [1]): 16.4 ×10⁻⁶ cm/s | Papp A→B (in vitro; [2]): > 2.5 ×10⁻⁶ cm/s | Papp A→B (in vitro; [3]): 16.4 ×10⁻⁶ cm/s
Compound: COCCc1ccc(OCC(O)CNC(C)C)cc1 (stereo not drawn) [Metoprolol]

EC50 (HIV-1 NL4-3 virus; [5]): > 27.9 µM
Compound: N-((S)-3-(3,5-Difluorophenyl)-1-((4-methoxyphenyl)(methyl)amino)-1-oxopropan-2-yl)-3-(1-(2-(hydroxymethyl)-5-(5-methyl-2,6-dioxo-1,2,3,6-tetrahydropyridin-3-yl)tetrahydrofuran-3-yl)-1H-1,2,3-triazol-4-yl)benzamide [II-10o]
CC50 (TZM-bl cells; Table 2): > 27.9 µM

EC50 (HIV-1 NL4-3 virus; [5]): > 34.3 µM
Compound: (S)-N-(1-((4-Methoxyphenyl)(methyl)amino)-1-oxo-3-phenylpropan-2-yl)-3-(1-(quinolin-2-yl)-1H-1,2,3-triazol-4-yl)benzamide [III-15i]
CC50 (TZM-bl cells; Table 2): > 34.3 µM

EC50 (HIV-1 NL4-3 virus; [5]): > 36 µM
Compound: Ethyl (S)-2-(4-(3-((1-((4-methoxyphenyl)(methyl)amino)-1-oxo-3-phenylpropan-2-yl)carbamoyl)phenyl)-1H-1,2,3-triazol-1-yl)acetate [III-15n]
anti-HIV-1 activity (in words) (HIV-1 NL4-3 virus): lost anti-HIV-1 activity completely | CC50 (TZM-bl cells; Table 2): > 36 µM

EC50 (HIV-1 NL4-3 virus; [5]): > 29.4 µM
Compound: 3-(1-(2-(Hydroxymethyl)-5-(5-methyl-2,6-dioxo-1,2,3,6-tetrahydropyridin-3-yl)tetrahydrofuran-3-yl)-1H-1,2,3-triazol-4-yl)-N-((S)-1-((4-methoxyphenyl)(methyl)amino)-1-oxo-3-phenylpropan-2-yl)benzamide [III-15o]
CC50 (TZM-bl cells; Table 2): > 29.4 µM

EC50 (HIV-1 NL4-3 virus; [6]): > 33.8 µM
Compound: COC(=O)CCCn1cc(-c2cccc(C(=O)N[C@@H](Cc3cc(F)cc(F)c3)C(=O)N(C)c3ccc(OC)cc3)c2)nn1 [II-10n, Methyl (S)-4-(4-(3-((3-(3,5-difluorophenyl)-1-((4-methoxyphenyl)(methyl)amino)-1-oxopropan-2-yl)carbamoyl)phenyl)-1H-1,2,3-triazol-1-yl)butanoate]
anti-HIV-1 activity (in words) (HIV-1 NL4-3 virus): lost anti-HIV-1 activity completely

EC50 (HIV-1 NL4-3 virus; [6]): 26.2 ± 7.3 µM
Compound: COc1ccc(N(C)C(=O)[C@H](Cc2ccccc2)NC(=O)c2cccc(-c3cn(Cc4ccc(C(N)=O)cc4)nn3)c2)cc1 [III-15d, (S)-3-(1-(4-Carbamoylbenzyl)-1H-1,2,3-triazol-4-yl)-N-(1-((4-methoxyphenyl)(methyl)amino)-1-oxo-3-phenylpropan-2-yl)benzamide]
anti-HIV-1 activity (in words) (HIV-1 NL4-3 virus): exhibited anti-HIV-1 activity at the test concentration | SI (selectivity index, ratio of CC50/EC50) (HIV-1 NL4-3 virus; Table 2): >1.30

Papp A→B (in vitro; [1]): 0.08 ×10⁻⁶ cm/s | Papp A→B (in vitro; [2]): < 0.5 ×10⁻⁶ cm/s | Papp A→B (in vitro; [3]): 0.08 ×10⁻⁶ cm/s
Compound: CC(C)(C)NCC(O)COc1cccc2c1CC(O)C(O)C2 (stereo not drawn) [Nadolol]
